IC50 data for 44 compounds are collected here from patent US8541572B2.

The first assay relates to TNF-α production in LPS-stimulated human whole blood. Nature of the assay: Inhibition of TNF-α production from human whole blood (hWBA). Format: cell-based. As to conditions: Homo sapiens, IC50 for TNF-α production, LPS-stimulated human whole blood; read-out: hWBA.
As to `COc1ccc2c(c1)C(=O)N(C[C@]1(C#Cc3ccc(C(=O)NS(C)(=O)=O)nc3)NC(=O)NC1=O)C2` [Compound 901], the IC50 was 1000 nM.

In the case of `COc1ccc2c(c1)C(=O)N(C[C@@]1(C#Cc3ccc(C(=O)NS(C)(=O)=O)nc3)NC(=O)NC1=O)C2` [Compound 902], the IC50 stood at 1370 nM.

Turning to `COc1ccc2c(c1)C(=O)N(C[C@@]1(C#Cc3ccc(C4(C5CCC5)NC(=O)NC4=O)cc3)NC(=O)NC1=O)C2` (some centres unmarked) [Compound 906], the IC50 came to 382 nM.

Take `COc1ccc2c(c1)C(=O)N(C[C@@]1(C#Cc3ccc4oc(C5(C)NC(=O)NC5=O)cc4c3)NC(=O)NC1=O)C2` (some centres unmarked) [Compound 909]: the IC50 stood at 292 nM.

On to `CCN1CCN(C(=NO)c2ccc(C#C[C@]3(CN4Cc5ccc(OC)cc5C4=O)NC(=O)NC3=O)cc2)CC1` [Compound 911], for which the IC50 is 20 nM.

In the case of `COc1ccc2c(c1)C(=O)N(C[C@@]1(C#Cc3cccc(C(=NO)N4CCOCC4)c3)NC(=O)NC1=O)C2` [Compound 916], the IC50 is 274 nM.

In the case of `CCN1CCN(C(=NO)c2cncc(C#C[C@]3(CN4Cc5ccc(OC)cc5C4=O)NC(=O)NC3=O)c2)CC1` [Compound 923], the IC50 worked out at 435 nM.

Regarding `COc1ccc2c(c1)C(=O)N(C[C@@]1(C#Cc3ccc(C(=NO)N4CCN(C5CCCCCC5)CC4)cc3)NC(=O)NC1=O)C2` [Compound 927], the IC50 worked out at 151 nM.

Regarding `COc1ccc2c(c1)C(=O)N(C[C@@]1(C#Cc3ccc(C(=NO)N4CCN(c5ccccc5)CC4)cc3)NC(=O)NC1=O)C2` [Compound 928], the IC50 was 278 nM.

Take `COc1ccc2c(c1)C(=O)N(C[C@@]1(C#Cc3ccc4c(c3)C(C)Oc3cccnc3-4)NC(=O)NC1=O)C2` (some centres unmarked) [Compound 929]: the IC50 stood at 3550 nM.

Consider `COc1ccc2c(c1)C(=O)N(C[C@@]1(C#Cc3ccc(C(=NO)N4CCN(C)CC4)cc3)NC(=O)NC1=O)C2` [Compound 943], for which the IC50 was 65 nM.

The same assay, now with this note: Homo sapiens, IC50 for inhibition of TNF-α production, LPS-stimulated human whole blood; read-out: hWBA.
Regarding `CSc1ccc2c(c1)C(=O)N(C[C@@]1(C#Cc3cccnc3)NC(=O)NC1=O)C2` [Compound 312], the IC50 was found to be 651 nM.

The assay is the same for the next values; noted with them: IC50 for TNF-α production, LPS-stimulated human whole blood; read-out: hWBA.
Consider `C#C[C@]1(CN2Cc3ccc(OC)c(F)c3C2=O)NC(=O)NC1=O` [Compound 23], for which the IC50 came to 841 nM.

Consider `COc1ccc2c(c1)C(=O)N(C[C@]1(C#Cc3cnc(N)c(C(=O)O)c3)NC(=O)NC1=O)C2` [Compound 903], for which the IC50 amounted to 1000 nM.

For the compound `COc1ccc2c(c1)C(=O)N(C[C@@]1(C#Cc3cnc(N)c(C(=O)NS(C)(=O)=O)c3)NC(=O)NC1=O)C2` [Compound 904], the IC50 amounted to 10000 nM.

`COc1ccc2c(c1)C(=O)N(C[C@]1(C#Cc3ccc(C(=O)O)s3)NC(=O)NC1=O)C2` [Compound 905]: the IC50 was 10000 nM.

Consider `COc1ccc2c(c1)C(=O)N(C[C@@]1(C#Cc3ccc(C4(C)NC(=O)NC4=O)s3)NC(=O)NC1=O)C2` (some centres unmarked) [Compound 907], for which the IC50 was determined as 208 nM.

For the compound `COc1ccc2c(c1)C(=O)N(C[C@@]1(C#Cc3csc(C4(C)NC(=O)NC4=O)c3)NC(=O)NC1=O)C2` (some centres unmarked) [Compound 908], the IC50 was 531 nM.

As to `COc1ccc2c(c1)C(=O)N(C[C@@]1(C#Cc3ccc4oc(C5(C)NC(=O)NC5=O)c(C)c4c3)NC(=O)NC1=O)C2` (some centres unmarked) [Compound 910], the IC50 amounted to 545 nM.

Turning to `COc1ccc2c(c1)C(=O)N(C[C@@]1(C#Cc3ccc(C(=NO)N4CCSCC4)cc3)NC(=O)NC1=O)C2` [Compound 912], the IC50 is 153 nM.

Take `COc1ccc2c(c1)C(=O)N(C[C@@]1(C#Cc3ccc(C(=NO)N4CCCN(C)CC4)cc3)NC(=O)NC1=O)C2` [Compound 913]: the IC50 worked out at 45 nM.

On to `COc1ccc2c(c1)C(=O)N(C[C@@]1(C#Cc3ccc(C(=NO)N4CCC4)cc3)NC(=O)NC1=O)C2` [Compound 914], for which the IC50 worked out at 186 nM.

`COc1ccc2c(c1)C(=O)N(C[C@@]1(C#Cc3cccc(C(=NO)N4CCN(C)CC4)c3)NC(=O)NC1=O)C2` [Compound 915]: the IC50 was determined as 221 nM.

For the compound `COc1ccc2c(c1)C(=O)N(C[C@@]1(C#Cc3ccc(C(=NO)N4CCN(C5CC5)CC4)cc3)NC(=O)NC1=O)C2` [Compound 922], the IC50 turned out to be 92 nM.

With `COc1ccc2c(c1)C(=O)N(C[C@@]1(C#Cc3cncc(C(=NO)N4CCCN(C)CC4)c3)NC(=O)NC1=O)C2` [Compound 924], the IC50 amounted to 1320 nM.

Take `CCCCN1CCN(C(=NO)c2ccc(C#C[C@]3(CN4Cc5ccc(OC)cc5C4=O)NC(=O)NC3=O)cc2)CC1` [Compound 925]: the IC50 came out at 74 nM.

As for `COc1ccc2c(c1)C(=O)N(C[C@@]1(C#Cc3ccc(C(=NO)N4CCN(C5CCCCC5)CC4)cc3)NC(=O)NC1=O)C2` [Compound 926], the IC50 stood at 76 nM.

As to `CCN1CCN(C(CO)c2ccc(C#C[C@]3(CN4Cc5ccc(OC)cc5C4=O)NC(=O)NC3=O)cc2)CC1` (some centres unmarked) [Compound 930], the IC50 worked out at 504 nM.

For `COc1ccc2c(c1)C(=O)N(C[C@@]1(C#Cc3ccc(C(=NO)N4CCCN(C(C)C)CC4)cc3)NC(=O)NC1=O)C2` [Compound 931], the IC50 amounted to 47 nM.

Regarding `COc1ccc2c(c1)C(=O)N(C[C@@]1(C#Cc3ccc(-c4ncccc4O)cc3)NC(=O)NC1=O)C2` [Compound 934], the IC50 was 117 nM.

Regarding `COc1ccc2c(c1)C(=O)N(C[C@@]1(C#Cc3ccc(/C=N\Nc4ccccc4)cc3)NC(=O)NC1=O)C2` [Compound 935], the IC50 was 1220 nM.

Regarding `CCN1CCN(c2ccc(O)c(-c3ccc(C#C[C@]4(CN5Cc6ccc(OC)cc6C5=O)NC(=O)NC4=O)cc3)n2)CC1` [Compound 936], the IC50 amounted to 72.4 nM.

Take `COc1ccc2c(c1)C(=O)N(C[C@@]1(C#Cc3ccc(C(=NO)N4CCCC4)cc3)NC(=O)NC1=O)C2` [Compound 942]: the IC50 stood at 641 nM.

Still in this assay, the particulars now being: IC50 for inhibition of TNF-α production, LPS-stimulated human whole blood; read-out: hWBA.
On to `COc1ccc2c(c1F)C(=O)N(C[C@@]1(C#Cc3ccc4c(=O)[nH][nH]c4c3)NC(=O)NC1=O)C2` [Compound 301], for which the IC50 was found to be 226 nM.

With `COc1ccc2c(c1)C(=O)N(C[C@@]1(C#Cc3cc(F)c4c(O)n[nH]c4c3)NC(=O)NC1=O)C2` [Compound 302], the IC50 turned out to be 723 nM.

On to `COc1ccc2c(c1F)C(=O)N(C[C@@]1(C#Cc3ccc4c(c3)CN(C)C(=O)N4)NC(=O)NC1=O)C2` [Compound 307], for which the IC50 was 281 nM.

For `COc1ccc2c(c1)C(=O)N(C[C@@]1(C#Cc3ccc4c(c3)c(N)nn4CCN(C)C)NC(=O)NC1=O)C2` [Compound 705], the IC50 was determined as 101 nM.

With `COc1ccc2c(c1)C(=O)N(C[C@@]1(C#Cc3ccc4c(c3)c(O)nn4C)NC(=O)NC1=O)C2` [Compound 712], the IC50 worked out at 1530 nM.

As for `COc1ccc2c(c1)C(=O)N(C[C@@]1(C#Cc3ccc4c(O)nn(C)c4c3)NC(=O)NC1=O)C2` [Compound 715], the IC50 came out at 456 nM.

Regarding `COc1ccc2c(c1)C(=O)N(C[C@@]1(C#Cc3ccc4c(CN(C)C)n[nH]c4c3)NC(=O)NC1=O)C2` [Compound 728], the IC50 stood at 163 nM.

Consider `COc1ccc2c(c1)C(=O)N(C[C@@]1(C#Cc3ccc4c(-c5ccncc5)n[nH]c4c3)NC(=O)NC1=O)C2` [Compound 734], for which the IC50 is 1010 nM.

Turning to `COc1ccc2c(c1)C(=O)N(C[C@@]1(C#Cc3ccc(CC4CCN(C)CC4)nc3)NC(=O)NC1=O)C2` [Compound 739], the IC50 came out at 195 nM.

On to `COc1ccc2c(c1)C(=O)N(C[C@@]1(C#Cc3ccc(-c4cc(N)[nH]n4)cc3)NC(=O)NC1=O)C2` [Compound 747], for which the IC50 stood at 128 nM.

`COc1ccc2c(c1)C(=O)N(C[C@@]1(C#Cc3ccc4c(O)n[nH]c4c3)NC(=O)NC1=O)C2` [Compound 748]: the IC50 came out at 156 nM.
